Patent publication US8895585B2, “Nicotinamide derivative or salt thereof” (FUJIFILM Corporation, priority 2010, dated 2014)

Tests used:
[1] = system: THP-1 cells; experiment: TNFα generation assay; type: cell-based, human; details: Homo sapiens, THP-1, THP-1 cells; Table 22; read-out: IC50 in TNFα generation assay
How it was run: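 THP-1 cells differentiated to macrophage-like cells with 10 ng/ml IFN-γ for 2 days, preincubated with compound 30 min at room temperature, then cultured 7 h on plates coated with human IgG (10 μg/ml). Secreted TNFα measured by ELISA or AlphaLISA.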

[2] = molecular target: T1, glutathione S-transferase (GST)-fused full-length human Syk protein (Homo sapiens, UniProt P43405); experiment: Syk enzyme assay; type: biochemical; details: Syk enzyme assay, Test Example 1; read-out: IC50 of Syk-inhibitory activity
T1 construct: (GST)-fused full-length human Syk protein; GST (glutathione S-transferase); purchased Carna Biosciences
How it was run: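 IC50 values come from a time-resolved FRET readout (615 and 665 nm) of substrate phosphorylation, measured after an EDTA stop and 1 h antibody binding. The kinase reaction ran 40 min at room temperature with 27 μM ATP and 0.4 μM biotin-peptide, following a 15 min compound preincubation with baculovirus-made GST-full-length human Syk.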

Compound | IC50 [1] [nM] | IC50 [2] [nM]
NC(=O)c1cc(F)c(N[C@@H]2CCCC[C@@H]2N)nc1Nc1cnc2[nH]ccc2c1 (relative stereo) [Example 004-061] | < 65 | < 10
NC(=O)c1cc(F)c(N[C@@H]2CCCC[C@@H]2N)nc1Nc1cncc2[nH]ccc12 (relative stereo) [Example 004-062] | < 65 | < 10
NC(=O)Nc1cccc2cc(Nc3nc(N[C@@H]4CCCC[C@@H]4N)c(F)cc3C(N)=O)cnc12 (relative stereo) [Example 004-064] | < 65 | 100 to 1000
NC(=O)c1cc(F)c(N[C@@H]2CCCC[C@@H]2N)nc1Nc1cc(-n2cncn2)nc2[nH]ccc12 (relative stereo) [Example 004-069, 2-((6-(1H-1,2,4-triazol-1-yl)-1H-pyrrolo[2,3-b]pyridin-4-yl)amino)-6-(cis-2-aminocyclohexylamino)-5-fluoronicotinamide] | 65 to 130 | < 10
Cc1cc2cc(Nc3nc(N[C@@H]4CCCC[C@@H]4N)c(F)cc3C(N)=O)ccc2[nH]1 (relative stereo) [Example 004-071, 6-(cis-2-aminocyclohexylamino)-5-fluoro-2-((2-methyl-1H-indol-5-yl)amino)nicotinamide] | 130 to 200 | < 10
Cn1cc(-c2cncc(Nc3nc(N[C@@H]4CCCC[C@@H]4N)c(F)cc3C(N)=O)c2)cn1 (relative stereo) [Example 004-072, 6-(cis-2-aminocyclohexylamino)-5-fluoro-2-((5-(1-methyl-1H-pyrazol-4-yl)pyridin-3-yl)-amino)nicotinamide] | 130 to 200 | < 10
NC(=O)c1cc(F)c(N[C@@H]2CCCC[C@@H]2N)nc1Nc1cncc(-c2cncs2)c1 (relative stereo) [Example 004-074, 6-(cis-2-aminocyclohexylamino)-5-fluoro-2-((5-(thiazol-5-yl)pyridin-3-yl)amino)-nicotinamide] | 65 to 130 | < 10
NC(=O)c1cc(F)c(N[C@@H]2CCCC[C@@H]2N)nc1Nc1cncc(-c2ccc3[nH]ccc3c2)c1 (relative stereo) [Example 004-076, 2-((5-(1H-indol-5-yl)pyridin-3-yl)amino)-6-(cis-2-aminocyclohexylamino)-5-fluoronicotinamide] | 130 to 200 | < 10
NC(=O)c1cc(F)c(N[C@@H]2CCCC[C@@H]2N)nc1Nc1cncc(-c2ccsc2)c1 (relative stereo) [Example 004-077, 6-(cis-2-aminocyclohexylamino)-5-fluoro-2-((5-(thiophene-3-yl)pyridin-3-yl)amino)-nicotinamide] | 65 to 130 | < 10
NC(=O)c1cc(F)c(N[C@@H]2CCCC[C@@H]2N)nc1Nc1cc([N+](=O)[O-])c2[nH]ccc2c1 (relative stereo) [Example 004-089, 6-(cis-2-aminocyclohexylamino)-5-fluoro-2-((7-nitro-1H-indol-5-yl)amino)nicotinamide] | 65 to 130 | < 10
NC(=O)c1cc(F)c(N[C@@H]2CCCC[C@@H]2N)nc1Nc1ccc2nn(CC3CC3)cc2c1 (relative stereo) [Example 004-093, 6-(cis-2-aminocyclohexylamino)-2-((2-(cyclopropylmethyl)-2H-indazol-5-yl)amino)-5-fluoronicotinamide] | 130 to 200 | < 10
COCCn1cc2cc(Nc3nc(N[C@@H]4CCCC[C@@H]4N)c(F)cc3C(N)=O)ccc2n1 (relative stereo) [Example 004-094, 6-(cis-2-aminocyclohexylamino)-5-fluoro-2-((2-(2-methoxyethyl)-2H-indazol-5-yl)amino)-nicotinamide] | 130 to 200 | < 10
CCOCCOCCn1cc2cc(Nc3nc(N[C@@H]4CCCC[C@@H]4N)c(F)cc3C(N)=O)ccc2n1 (relative stereo) [Example 004-095, 6-(cis-2-aminocyclohexylamino)-2-((2-(2-(2-ethoxyethoxy)ethyl)-2H-indazol-5-yl)amino)-5-fluoronicotinamide] | 130 to 200 | < 10
NC(=O)c1cc(F)c(N[C@@H]2CCCC[C@@H]2N)nc1Nc1cncc(Cl)c1 (relative stereo) [Example 004-097, 6-(cis-2-aminocyclohexylamino)-2-((5-chloropyridin-3-yl)amino)-5-fluoronicotinamide] | 65 to 130 | < 10

Next, values leading:

IC50 [1] [nM] | IC50 [2] [nM] | Compound
< 65 | < 10 | NC(=O)c1cc(F)c(N[C@@H]2CCCC[C@@H]2N)nc1Nc1cnc2c(N)cccc2c1 (relative stereo) [Example 004-059]
65 to 130 | < 10 | COc1cc(Nc2nc(N[C@@H]3CCCC[C@@H]3N)c(F)cc2C(N)=O)c2cc[nH]c2n1 (relative stereo) [Example 004-065, 6-(cis-2-aminocyclohexylamino)-5-fluoro-2-((6-methoxy-1H-pyrrolo[2,3-b]pyridin-4-yl)-amino)nicotinamide]
65 to 130 | < 10 | NC(=O)c1cc(F)c(N[C@@H]2CCCC[C@@H]2N)nc1Nc1cc(-n2ccnn2)nc2[nH]ccc12 (relative stereo) [Example 004-068, 2-((6-(1H-1,2,3-triazol-1-yl)-1H-pyrrolo[2,3-b]pyridin-4-yl)amino)-6-(cis-2-aminocyclohexylamino)-5-fluoronicotinamide]
130 to 200 | < 10 | NC(=O)c1cc(F)c(N[C@@H]2CCCC[C@@H]2N)nc1Nc1cncc(-c2cnn(Cc3ccccc3)c2)c1 (relative stereo) [Example 004-075, 6-(cis-2-aminocyclohexylamino)-2-((5-(1-benzyl-1H-pyrazol-4-yl)pyridin-3-yl)amino)-5-fluoronicotinamide]
65 to 130 | < 10 | NC(=O)c1cc(F)c(N[C@@H]2CCCC[C@@H]2N)nc1Nc1cncc(-c2ccoc2)c1 (relative stereo) [Example 004-078, 6-(cis-2-aminocyclohexylamino)-5-fluoro-2-((5-(furan-3-yl)pyridin-3-yl)amino)-nicotinamide]
130 to 200 | < 10 | NC(=O)c1cc(F)c(N[C@@H]2CCCC[C@@H]2N)nc1Nc1cc(F)cc2[nH]ccc12 (relative stereo) [Example 004-082, 6-(cis-2-aminocyclohexylamino)-5-fluoro-2-((6-fluoro-1H-indol-4-yl)amino)nicotinamide]
65 to 130 | < 10 | COCCn1ncc2cc(Nc3nc(N[C@@H]4CCCC[C@@H]4N)c(F)cc3C(N)=O)ccc21 (relative stereo) [Example 004-091, 6-(cis-2-aminocyclohexylamino)-5-fluoro-2-((1-(2-methoxyethyl)-1H-indazol-5-yl)amino)-nicotinamide]
65 to 130 | < 10 | CCOCCOCCn1ncc2cc(Nc3nc(N[C@@H]4CCCC[C@@H]4N)c(F)cc3C(N)=O)ccc21 (relative stereo) [Example 004-092, 6-(cis-2-aminocyclohexylamino)-2-((1-(2-(2-ethoxyethoxy)ethyl)-1H-indazol-5-yl)amino)-5-fluoronicotinamide]
65 to 130 | 10 to 50 | NC(=O)c1cc(F)c(N[C@@H]2CCCC[C@@H]2N)nc1Nc1cccnc1 (relative stereo) [Example 004-096, 6-(cis-2-aminocyclohexylamino)-5-fluoro-2-((pyridin-3-yl)amino)nicotinamide]
